Results on seven compounds are retold here after patent US20260209214A1, “LSD1 MODULATORS” (RECURSION PHARMACEUTICALS, INC., priority 2022, published 2026).

The structures appear in SMILES notation.

In the test the target is Recombinant human LSD1 (Homo sapiens, UniProt O60341). The test can be described thus: LSD1 inhibition assay (HTRF LSD1 Histone H3K4 mono-demethylation assay, me1->me0). Format: biochemical. The note with it: 20 nM recombinant human LSD1, 95 nM H3K4(me1) biotinylated peptide, 15 min preincubation, 60 min at 25° C., read-out: LSD1 inhibition IC50 (nM range). The essentials:
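HTRF demethylation (me1->me0) read-out: streptavidin-XL665 and anti-H3K4me0 cryptate added after reaction, ratio measured after 90 min dark. Reaction: 95 nM H3K4me1 biotin-peptide, 20 nM LSD1 (15-min compound pre-incubation), 60 min, 25 °C, buffer pH 8.5 plus FAD and DTT; 4-parameter logistic IC50.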

For `N#Cc1ccc(-c2cccc(CN3C[C@]4(N)CC[C@H]3C4)c2-c2scnc2Cl)cc1F` [Example 188, 3'-{[(1S,4S)-4-amino-2-azabicyclo[2.2.1]heptan-2-yl]methyl}-2'-(4-chloro-1,3-thiazol-5-yl)-3-fluoro-[1,1'-biphenyl]-4-carbonitrile], the IC50 was in the range of 10 to 25 nM.

As to `N#Cc1ccc(-c2cccc(C[C@H]3CNCCO3)c2-c2cncs2)cc1F` (single isomer, unassigned) [Example 30], the IC50 was 10 to 25 nM. On to `N#Cc1ccc(-c2cccc(CC3CNCCO3)c2C2=CCOC2)cc1F` (stereo not shown) [Example 10, 2′-(2,5-dihydrofuran-3-yl)-3-fluoro-3′-[(morpholin-2-yl)methyl]-[1,1′-biphenyl]-4-carbonitrile], for which the half-inhibitory concentration (IC50) lay within 10 to 25 nM. The same measure for `C[C@@H]1CCN(Cc2cccc(-c3ccc(C#N)c(F)c3)c2Cl)C[C@H]1N` (racemic) [Example 331, 3'-{[(3S,4R)-3-amino-4-methylpiperidin-1-yl]methyl}-2'-chloro-3-fluoro-[1,1'-biphenyl]-4-carbonitrile]: greater than 1000 nM. With `CC1(N)CCCN(Cc2cccc(-c3ccc(C#N)c(F)c3)c2Cl)C1` (stereo not shown) [Example 286, 3'-[(3-amino-3-methylpiperidin-1-yl)methyl]-2'-chloro-3-fluoro-[1,1'-biphenyl]-4-carbonitrile], the IC50 was greater than 1000 nM. As for `N#Cc1ccc(-c2cccc(CC3CNCCO3)c2C#N)cc1F` (stereo not shown) [Example 84, 3′-fluoro-3-[(morpholin-2-yl)methyl]-[1,1′-biphenyl]-2,4′-dicarbonitrile], the IC50 was greater than 1000 nM. To `N#Cc1ccc(-c2cc(CC3CNCCO3)ccc2C2COC2)cc1F` (stereo not shown) [Example 150, 3-fluoro-5'-[(morpholin-2-yl)methyl]-2'-(oxetan-3-yl)-[1,1'-biphenyl]-4-carbonitrile] belongs greater than 1000 nM.
